# Experimental data as given in article PMC6792352, “Limited Chemical Structural Diversity Found to Modulate Thyroid Hormone Receptor in the Tox21 Chemical Library” (Environmental Health Perspectives, 2019).
# Read-outs that look alike come from different tables or passages of the source.
# Experiments:
# in vitro [1] = details: rat
# in vitro [2] = details: rat, gh3-tre-luc cells, AC50 (uM) modified / 1000
# [3] = tested on: Tox21 cell viability assays (different cell types); experiment: Global cytotoxicity: eighteen Tox21 cell viability assays; type: cell-based
# [4] = as above; type: cell-based
# [5] = tested on: thyroid hormone receptor (endogenous TRα and TRβ); experiment: GH3-TRE-Antag primary qHTS, luciferase reporter, antagonist mode with 1 nM T3 (TOX21_TR_LUC_GH3_Antagonist, aeid 804); type: cell-based, rat
# [6] = tested on: thyroid hormone receptor (endogenous TRα and TRβ); experiment: GH3-TRE-Ag primary qHTS, luciferase reporter, agonist mode (TOX21_TR_LUC_GH3_Agonist, aeid 803); type: cell-based, rat; details: for TR_LUC_GH3_Agonist_EMAX (% Control): Table S5; for GH3-TRE-Ag AC50 hitc: hit call from tcpl
# [7] = tested on: thyroid hormone receptor (endogenous TRα and TRβ); experiment: GH3-TRE-Ag-Followup confirmation (TOX21_TR_LUC_GH3_Agonist_Followup, aeid 2226); type: cell-based, rat; details: for AC50: confirmation, agonist mode, read-out: GH3-TRE-Ag-Followup AC50; for GH3-TRE-Ag-Followup hitc: hit call from tcpl
# [8] = tested on: thyroid hormone receptor (TR); experiment: Classification of TR actives across characterization assays (TR-Ag / RXR-Ag; TR model binary); details: for Categorization Code: TR agonist characterization; for Classification: TR-Ag = TR agonist, RXR-Ag = RXR agonist
# Procedure, shortened: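 Pharmaceuticals excluded; actives called from GH3-TRE qHTS (agonist, antagonist, viability) on 8,305 chemicals. Confirmation of 84 selected chemicals used GH3-TRE-Ag, mammalian one-hybrid TRβ and RXRα UAS-bla HEK 293T specificity screens, parental HEK293T viability, and two TR:coactivator recruitment assays.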
# GH3-TRE-Luc cell line [9] = details: rat, 24 h
# [10] = GH3-TRE-Via cell viability, CellTiter-Fluor (TOX21_TR_LUC_GH3_Antagonist_viability, aeid 805); details: rat
# [11] = target: T1, human TRβ ligand-binding domain (Homo sapiens, UniProt P10828); experiment: TRb-bla agonist mammalian one-hybrid beta-lactamase assay (TOX21_TRB_BLA_Agonist_Followup_ratio, aeid 2236); type: cell-based; set-up: host or cells: GeneBLAzer UAS-bla HEK 293T; details: for AC50: HEK 293T one-hybrid, agonist mode, read-out: TRb-bla-Ag AC50; for TRb-bla hitc: hit call from tcpl, agonist; for Emax: read-out: EMax (% of Control) trb-bla-agonist-followup-1
# T1 sequence (P10828 217-461 limits assumed): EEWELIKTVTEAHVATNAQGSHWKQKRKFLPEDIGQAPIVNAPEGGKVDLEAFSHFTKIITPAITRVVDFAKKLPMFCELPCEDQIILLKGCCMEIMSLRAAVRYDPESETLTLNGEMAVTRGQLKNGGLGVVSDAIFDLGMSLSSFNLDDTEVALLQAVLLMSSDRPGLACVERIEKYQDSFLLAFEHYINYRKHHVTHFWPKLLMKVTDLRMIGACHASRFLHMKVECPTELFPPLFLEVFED
# [12] = target: T2, TRα ligand-binding domain (Homo sapiens, UniProt P10827); experiment: TRa-coa LanthaScreen TR-FRET coactivator (SRC-2 peptide) recruitment, agonist (TOX21_TRA_COA_Agonist_Followup_ratio, aeid 2230); type: biochemical; details: for AC50: cell-free coactivator recruitment, read-out: TRa-coa-Ag AC50; for TRa-coa hitc: hit call from tcpl, agonist; for Emax: read-out: EMax (% of Control) tra-coa-agonist-followup-1
# T2 construct: the receptor LBDs expressed as glutathione S-transferase (GST) fusion proteins; purchased
# T2 sequence (P10827 163-410 isoform P10827-2 limits assumed, other chains not shown): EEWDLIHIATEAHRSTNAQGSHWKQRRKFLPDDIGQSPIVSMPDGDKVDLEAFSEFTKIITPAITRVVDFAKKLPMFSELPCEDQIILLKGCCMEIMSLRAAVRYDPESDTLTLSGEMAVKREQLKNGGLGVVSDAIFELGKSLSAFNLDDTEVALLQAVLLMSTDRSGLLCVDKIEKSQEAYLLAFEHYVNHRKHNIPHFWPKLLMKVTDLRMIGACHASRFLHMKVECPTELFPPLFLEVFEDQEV
# [13] = target: T1, human TRβ ligand-binding domain; experiment: TRb-coa LanthaScreen TR-FRET coactivator (SRC-2 peptide) recruitment, agonist (TOX21_TRB_COA_Agonist_Followup_ratio, aeid 2244); type: biochemical; set-up: host or cells: GeneBLAzer UAS-bla HEK 293T; details: for AC50: cell-free coactivator recruitment, read-out: TRb-coa-Ag AC50; for TRb-coa hitc: hit call from tcpl, agonist; for Emax: read-out: EMax (% of Control) trb-coa-agonist-followup-1
# human RXRα = target: T3, human RXRα (Homo sapiens, UniProt P19793); experiment: RXRa-bla-Ag mammalian one-hybrid beta-lactamase assay (TOX21_TR_RXR_BLA_Agonist_Followup_ratio, aeid 2253); type: cell-based; details: for AC50: HEK 293T one-hybrid, agonist mode, inactive set to 1,000, read-out: RXRa-bla-Ag AC50; for tr-followup-rxr-bla-agonist-1 hitc: hit call from tcpl; for Emax: read-out: EMax (% of Control) tr-followup-rxr-bla-agonist-1
# T3 construct: host or cells: GeneBLAzer UAS-bla HEK 293T
# T3 sequence (P19793 227-458 limits assumed): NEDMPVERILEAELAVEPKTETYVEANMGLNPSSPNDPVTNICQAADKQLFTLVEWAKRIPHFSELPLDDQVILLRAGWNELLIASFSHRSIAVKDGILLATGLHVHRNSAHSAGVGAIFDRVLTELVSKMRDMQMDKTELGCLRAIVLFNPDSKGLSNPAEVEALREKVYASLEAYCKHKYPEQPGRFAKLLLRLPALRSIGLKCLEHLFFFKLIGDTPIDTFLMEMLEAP
# GH3-TRE-Luc cell line [14] = experiment: GH3-TRE-Via cell viability, CellTiter-Fluor (TOX21_TR_LUC_GH3_Antagonist_viability, aeid 805)
# [15] = antagonist mode, 1 nM T3; read-out: GH3-TRE-Antag AC50
# [16] = antagonist candidates, inactive samples arbitrarily set to AC50=1,000 μM, read-out: GH3-TRE-Ag AC50
# [17] = percentage of 18 Tox21 viability assays with hitc=1
# [18] = median over 18 Tox21 cell viability assays, inactive set to 1,000, read-out: Global cytotoxicity AC50 median
# [19] = primary qHTS, agonist mode, 24 h, top concentration 92 μM, read-out: GH3-TRE-Ag AC50
Structure (SMILES),AC50 at 24 h (in vitro [1]) [µM],Active in global cytotoxicity assays (%) [3] [%],AC50 [4] [µM],"AC50 [5, 15] [µM]","AC50 [6, 16] [µM]",EMax (% of Control) gh3-tre-agonist-followup-1_agonist [7],AC50 [7] [µM],GH3-TRE-Ag-Followup hitc [7],GLOBAL CYTOTOXICITY cytotox.number_Active [3],Categorization Code [8],Classification [8],GH3-TRE-Ag AC50 hitc [6],other results
Cc1cccc(Nc2ccccc2C(=O)O)c1C [Mefenamic acid],> 92,4.5,50.8,19.5,> 92,–,–,–,–,–,–,–,CC50 at 24 h (in vitro [2]): > 50 µM; active rate in Tox21 viability/cytotoxicity assays [3]: 4.5%
"N[C@@H](Cc1cc(I)c(Oc2ccc(O)c(I)c2)c(I)c1)C(=O)O [3,5,3ʹ-Triiodothyronine, reference compound]",41.7,–,> 92,–,–,[…],[…],[…],0,TR-Ag,TR-Ag,[…],"GLOBAL CYTOTOXICITY cytotox.median [3]: >92; EMax (% of Control) gh3-tre-agonist [6]: […]; TR_LUC_GH3_Agonist_EMAX (% Control) [6]: […]; AC50 ([6]; Table S5, chemical level, listed as 3,5,3'-Triiodothyronine, read-out: TR_LUC_GH3_Agonist_AC50): […]; TR_LUC_GH3_Antagonist_viability hitc (GH3-TRE-Luc cell line [9]): […]"
"CCCc1c(OCCCCc2nnn[nH]2)ccc(C(C)=O)c1O [Tomelukast, reference compound]",–,–,–,–,> 92,–,–,–,–,–,–,–,"AC50 at 24 h [10]: > 92 µM; Active in global cytotoxicity assays (%) [3, 17]: 9.1%; AC50 [4, 18]: 14.4 µM"
"C=C(c1ccc(C(=O)O)cc1)c1cc2c(cc1C)C(C)(C)CCC2(C)C [Bexarotene, reference compound]",10.4,–,23.9,–,–,37.1 % of Control,0.017,1,15,RXR-Ag,RXR-Ag,0,"AC50 [11]: > 92 µM; TRb-bla hitc [11]: 0; Emax [11]: 11.8%; GLOBAL CYTOTOXICITY cytotox.median [3]: 23.9; AC50 [12]: > 92 µM; TRa-coa hitc [12]: 0; Emax [12]: -0.4%; AC50 [13]: > 92 µM; TRb-coa hitc [13]: 0; Emax [13]: -0.427%; EMax (% of Control) gh3-tre-agonist [6]: 26.0 % of Control; AC50 [6, 19]: 0.0077 µM; TR_LUC_GH3_Antagonist_viability hitc (GH3-TRE-Luc cell line [9]): 1"
C=C1CC[C@@H]2[C@](C)(CO)[C@H](O)CC[C@@]2(C)[C@@H]1C/C=C1/C(=O)OC[C@H]1O [Andrographolide],–,–,–,24.6,> 92,–,–,–,–,–,–,–,AC50 at 24 h [10]: 19.4 µM
CCCCCCCCCCCCn1cc[n+](C)c1.[I-] [1-Dodecyl-3-methylimidazolium iodide],–,–,–,1.33,> 92,–,–,–,–,–,–,–,"AC50 (in vitro [1]): 5.1 µM; Active in global cytotoxicity assays (%) [3, 17]: 74.2%; AC50 [4, 18]: 41.1 µM"
CN(C)c1ccc(/N=N/c2ccccc2C(=O)O)cc1 [Methyl red],14.6,48.5,48.5,8.79,> 92,–,–,–,–,–,–,–,–
COc1cccc2c1C(=O)c1c(O)c3c(c(O)c1C2=O)C[C@@](O)(C(C)=O)C[C@@H]3O[C@H]1C[C@H](N)[C@H](O)[C@H](C)O1 [Daunorubicin],1.01,66.1,10.5,–,–,–,–,–,–,–,–,–,"active rate in Tox21 viability/cytotoxicity assays [3]: two-thirds; AC50 ([5]; read-out: GH3-TRE-Antag AC50; antagonist mode, 1 nM T3): 0.7 µM; AC50 ([6]; read-out: GH3-TRE-Ag AC50): > 92 µM"
"O=C(O)Cc1cc(I)c(Oc2ccc(O)c(I)c2)c(I)c1 [Tiratricol, reference compound]",> 92,–,27,–,–,105.1 % of Control,0.0002,1,4,TR-Ag,TR-Ag,1,GLOBAL CYTOTOXICITY cytotox.median ([3]; median over Tox21 viability assays): 27.0; TR_LUC_GH3_Agonist_EMAX (% Control) [6]: 104.7 % Control; TR_LUC_GH3_Antagonist_viability hitc (GH3-TRE-Luc cell line [9]): 0
"O=C(O)CCNC(=O)c1ccccc1 [Betamipron, reference compound]",> 92,–,> 92,–,–,90.7 % of Control,1.68,1,0,TR-Ag,TR-Ag,1,"AC50 [11]: 14 µM; TRb-bla hitc [11]: 1; Emax [11]: 85.5%; GLOBAL CYTOTOXICITY cytotox.median [3]: >92; activity in RXRα-bla-Ag assay (human RXRα): lack of activity; AC50 (human RXRα): > 92 µM; tr-followup-rxr-bla-agonist-1 hitc (human RXRα): 0; Emax (human RXRα): 2.9%; AC50 [12]: 10.4 µM; TRa-coa hitc [12]: 1; Emax [12]: 120%; AC50 [13]: 11.8 µM; TRb-coa hitc [13]: 1; Emax [13]: 30.8%; EMax (% of Control) gh3-tre-agonist [6]: 72.8 % of Control; activity in GH3-TRE agonist assay [6]: concentration-dependent activity; AC50 [6, 19]: 11.8 µM; TR_LUC_GH3_Antagonist_viability hitc (GH3-TRE-Luc cell line [9]): 0"
"c1cc(N(CC2CO2)CC2CO2)ccc1Cc1ccc(N(CC2CO2)CC2CO2)cc1 (stereo not drawn) [4,4ʹ-Methylenebis(N,N-diglycidylaniline)]",–,–,–,8.03,> 92,–,–,–,–,–,–,–,"AC50 (in vitro [1]): 11.1 µM; Active in global cytotoxicity assays (%) [3, 17]: 59.1%; AC50 [4, 18]: 45.3 µM"
COC(=O)C[C@](O)(CCCC(C)(C)O)C(=O)O[C@@H]1C(OC)=C[C@]23CCCN2CCc2cc4c(cc2[C@H]13)OCO4 [Omacetaxine mepesuccinate],0.057,60.0,0.06,0.029,> 92,–,–,–,–,–,–,–,CC50 at 24 h (in vitro [2]): 0.0816 µM
CC(C)C[C@H](NC(=O)[C@H](CCc1ccccc1)NC(=O)CN1CCOCC1)C(=O)N[C@@H](Cc1ccccc1)C(=O)N[C@@H](CC(C)C)C(=O)[C@@]1(C)CO1 [Carfilzomib],0.037,64.4,0.46,0.025,> 92,–,–,–,–,–,–,–,active rate in Tox21 viability/cytotoxicity assays [3]: 64%
"CCCCCOc1ccc(C2SC(=O)NC2=O)cc1OCC (stereo not drawn) [Risarestat, reference compound]",–,–,–,–,> 92,–,–,–,–,–,–,–,"AC50 at 24 h [10]: > 92 µM; cytotoxicity in GH3 viability assay (GH3-TRE-Luc cell line [14]): lacked cytotoxicity; Active in global cytotoxicity assays (%) [3, 17]: 11.9%; AC50 [4, 18]: 16.4 µM"
"COc1cc(C)c(/C=C/C(C)=C/C=C/C(C)=C/C(=O)O)c(C)c1C [Acitretin, reference compound]",> 92,–,–,–,–,79.4 % of Control,0.94,1,0,RXR-Ag,RXR-Ag,1,"TR_LUC_GH3_Antagonist_viability hitc (GH3-TRE-Luc cell line [14]; hit call from tcpl): 0; Emax [11]: 4.1%; GLOBAL CYTOTOXICITY cytotox.median [3]: >92; AC50 ([4]; median over 18 Tox21 cell viability assays (Judson et al. 2016, invitrodb_v2), read-out: Global cytotoxicity AC50 median): > 92 µM; AC50 (human RXRα): 0.564 µM; tr-followup-rxr-bla-agonist-1 hitc (human RXRα): 1; Emax (human RXRα): 105%; AC50 [12]: > 92 µM; TRa-coa hitc [12]: 0; Emax [12]: 3.4%; Emax [13]: 4.8%; EMax (% of Control) gh3-tre-agonist [6]: 24.4 % of Control"
